This note sets out measurements from US20200140483A1, “USE OF Y PEPTIDE IN PREPARATION OF DRUG OR HEALTHCARE PRODUCT FOR LOWERING BLOOD PRESSURE” (priority 2017, published 2020).

The data set has as its system SHR rats. It counts as in vivo, rat. How it is done:
Each group was intragastrically administrated a solution of a corresponding tested substance or ultrapure water, in a volume of 10 mL/kg body weight, once per day for 30 consecutive days. The blood pressure and heart rates of the animals were measured during the administration of the tested substance. The blood pressure was measured with an LE5002 noninvasive blood pressure meter.

Residues, ends and D or L forms follow the SMILES beside them.

In the case of `N[C@@H](Cc1ccc(O)cc1)C(=O)N[C@@H](Cc1ccc(O)cc1)C(=O)O` [YY-peptide] (H-Tyr-Tyr-OH; N-terminus and C-terminus assumed), the blood pressure (SHR rats, 10 mg/kg intragastric once per day, 7th day, model control 161±6) is 157±7. Also, the “effect in lowering blood pressure” value (SHR rats, 10 mg/kg, 7th day) is recorded as “significant effect in lowering blood pressure”. Besides, for the setting “rat, in vivo, 10 mg/kg”, the “effect on body weight” value is given as “no obvious effect” and the “effect on heart rates” value is “no obvious effect”.
